From PubChem BioAssay AID651872 (NMMLSC, 2012)

Each compound was assayed against Beta-2 adrenergic receptor (Homo sapiens) (UniProt P07550) (assay: ADRB2 activation measured by internalization – cell-based, FAP fluorogen, flow cytometry, powder set 4, dose response (AID 651872)). Settings: AM2.2-beta2AR cells, 90 min.
Chain of Beta-2 adrenergic receptor (Homo sapiens) (P07550 whole entry, looked up): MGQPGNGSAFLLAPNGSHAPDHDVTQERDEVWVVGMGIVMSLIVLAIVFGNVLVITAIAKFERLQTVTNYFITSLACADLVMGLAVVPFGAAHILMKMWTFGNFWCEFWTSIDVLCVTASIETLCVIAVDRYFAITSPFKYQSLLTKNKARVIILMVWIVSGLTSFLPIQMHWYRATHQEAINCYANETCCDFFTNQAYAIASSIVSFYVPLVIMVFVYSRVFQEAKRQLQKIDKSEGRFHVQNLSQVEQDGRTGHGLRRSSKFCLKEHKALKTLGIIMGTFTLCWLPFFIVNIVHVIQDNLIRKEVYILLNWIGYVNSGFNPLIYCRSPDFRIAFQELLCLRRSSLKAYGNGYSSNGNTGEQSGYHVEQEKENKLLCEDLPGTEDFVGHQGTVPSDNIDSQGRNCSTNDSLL

| EC50 [nM] | SMILES |
| --- | --- |
| 208 | O=C(CN(Cc1ccccc1)S(=O)(=O)c1ccc(Cl)cc1)N1CCN(c2ccccn2)CC1 |
| 1.6 | Cc1ccc(S(=O)(=O)N(C)CC(=O)N2CCN(c3ccccn3)CC2)cc1 |
| 26.2 | O=C(C1CCC(=O)N1S(=O)(=O)c1ccccc1)N1CCN(c2ccccn2)CC1 (stereo unspecified) |

More lines, now with the values behind:

| SMILES | EC50 [nM] |
| --- | --- |
| CC(=O)Nc1ccc(S(=O)(=O)N2CCCCC2c2cccnc2)cc1 (stereo unspecified) | 10.5 |
| COc1ccccc1N1CCN(C(=O)CN(C)S(=O)(=O)c2ccc(C)cc2)CC1 | 676 |
| CN(CC(=O)N1CCN(c2cccc(C(F)(F)F)c2)CC1)S(=O)(=O)c1ccc(F)cc1 | 9640 |
